Experimental data from PubChem BioAssay (NCI).
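The compound was tested at five concentrations on cells cultured in 96-well plates, with a 48-hour exposure period. At the GI50, growth is halved. The concentration for full growth arrest is given as TGI.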

How the values were obtained:
Assay in all cases: NCI tumour cell line growth inhibition, 48 h
DU-145 prostate = tested on: DU-145 prostate
MDA-MB-231 breast = tested on: MDA-MB-231 breast
U251 CNS = tested on: U251 CNS
SK-MEL-2 melanoma = tested on: SK-MEL-2 melanoma
HCT-116 colon = tested on: HCT-116 colon
HOP-62 NSCLC = tested on: HOP-62 NSCLC
SF-539 CNS = tested on: SF-539 CNS
CAKI-1 renal = tested on: CAKI-1 renal
SNB-75 CNS = tested on: SNB-75 CNS
HOP-92 NSCLC = tested on: HOP-92 NSCLC

SMILES | GI50 (DU-145 prostate) | TGI (DU-145 prostate) | GI50 (MDA-MB-231 breast) | TGI (MDA-MB-231 breast) | GI50 (U251 CNS) | TGI (U251 CNS) | GI50 (SK-MEL-2 melanoma) | TGI (SK-MEL-2 melanoma) | GI50 (HCT-116 colon) | TGI (HCT-116 colon) | GI50 (HOP-62 NSCLC) | TGI (HOP-62 NSCLC) | GI50 (SF-539 CNS) | TGI (SF-539 CNS) | GI50 (CAKI-1 renal) | TGI (CAKI-1 renal) | GI50 (SNB-75 CNS) | TGI (SNB-75 CNS) | GI50 (HOP-92 NSCLC) | TGI (HOP-92 NSCLC)
CN1CCN(c2ccc3nc4c(nc3c2C(F)(F)F)C(=O)c2ncccc2C4=O)CC1 | 1.23 µM | 2.6 µM | 2.54 µM | 7 µM | 1.38 µM | 4.04 µM | 2.05 µM | 4.34 µM | 1.47 µM | 4.51 µM | 1.07 µM | 2.92 µM | 1.51 µM | 2.85 µM | 1.2 µM | 2.75 µM | 1.11 µM | 2.32 µM | 2.49 µM | 5.65 µM
CON | > 100 µM | > 100 µM | > 100 µM | > 100 µM | > 100 µM | > 100 µM | > 100 µM | > 100 µM | > 100 µM | > 100 µM | > 100 µM | > 100 µM | > 100 µM | > 100 µM | > 100 µM | > 100 µM | > 100 µM | > 100 µM | > 100 µM | > 100 µM
Cc1cc2nc3c4ccccc4n(CCN(C)C)c3nc2cc1C | 2.07 µM | 11.8 µM | 1.76 µM | 9.91 µM | 2.01 µM | 11.3 µM | 1.9 µM | 4.24 µM | 0.488 µM | 11.3 µM | 1.11 µM | 7.74 µM | 1.83 µM | 4.66 µM | 0.982 µM | 12.2 µM | 1.28 µM | 3.2 µM | 1.36 µM | 8.85 µM
CC(=O)/C=C/C1=C(c2ccsc2)c2ccccc2CC1 | 40.8 µM | > 100 µM | 19.3 µM | 49.4 µM | 22.1 µM | 48.8 µM | 21.2 µM | 38 µM | 22.8 µM | 50.3 µM | 26.1 µM | 66.8 µM | 25.1 µM | 60.7 µM | 27.7 µM | 83.4 µM | > 100 µM | > 100 µM | 17.2 µM | 50.6 µM
Cc1c(N2C(=O)/C(=C\c3ccc(N(C)C)cc3)N=C2c2ccccc2)c(=O)n(-c2ccccc2)n1C | 71.3 µM | > 100 µM | > 82.9 µM | > 100 µM | > 92.4 µM | > 100 µM | > 100 µM | > 100 µM | 33.7 µM | > 100 µM | > 100 µM | > 100 µM | > 100 µM | > 100 µM | > 100 µM | > 100 µM | 60.2 µM | > 100 µM | 31.8 µM | > 100 µM
C[C@@H]1CN2[C@H]3[C@@H]1CC[C@]31CCC(=O)O[C@]1(C)[C@@H]1CC[C@H]3CCC=C3[C@@H]12 | > 70 µM | > 70 µM | > 70 µM | > 70 µM | > 70 µM | > 70 µM | > 70 µM | > 70 µM | > 70 µM | > 70 µM | > 70 µM | > 70 µM | > 70 µM | > 70 µM | > 70 µM | > 70 µM | 35.3 µM | > 70 µM | 38.4 µM | > 70 µM
